Test results taken from the supplement of paper PMC10307832.

Legend:
Test in all cases: relative viability (nuclei count vs DMSO), 5 days (fraction); higher = more cells survive
[1] = compound: CC1=CC=C(C=C1)C(=O)CN2C3=C(CCCC3)SC2=N [Pifithrin_alpha] + CC(C)C[C@H](NC(=O)[C@H](Cc1ccccc1)NC(=O)c1cnccn1)B(O)O [Bortezomib] (partner 0.002 µM)
Procedure, shortened: (§1)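 Values are medians from duplicate plates. Each reflects relative viability, defined as the nuclei count of treated wells over that of vehicle wells. Lung cancer cell lines in 1536-well plates were pin-tool dosed one day after seeding with one drug alone or with a fixed anchor-drug dose plus five library-drug doses (not always all listed) in √10 steps, then fixed, stained and imaged at 4× after 5 days.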

[2] = compound: Nc1nc(Nc2ccc3c(c2)CC[C@@H](N2CCCC2)CC3)nn1-c1cc2c(nn1)-c1ccccc1CCC2 [Bemcentinib] + Nc1nc2[nH]cc(CCc3ccc(C(=O)N[C@@H](CCC(=O)O)C(=O)O)cc3)c2c(=O)[nH]1 [Pemetrexed] (partner 0.2 µM)
Procedure, shortened: as §1

[3] = compound: CC1=CC=C(C=C1)C(=O)CN2C3=C(CCCC3)SC2=N [Pifithrin_alpha] + C[C@]1(O)C[C@@H](c2nc(-c3ccc4ccc(-c5ccccc5)nc4c3)c3c(N)nccn32)C1 [Linsitinib] (partner 1 µM)
Procedure, shortened: as §1

[4] = compound: CNC(=O)c1ccccc1Sc1ccc2c(/C=C/c3ccccn3)n[nH]c2c1 [Axitinib] + CC(=O)c1c(C)c2cnc(Nc3ccc(N4CCNCC4)cn3)nc2n(C2CCCC2)c1=O [Palbociclib] (partner 0.5 µM)
Procedure, shortened: as §1

Cell Line	relative viability ([1]; first compound 1 µM)	relative viability ([1]; first compound 3.162 µM)	relative viability ([1]; first compound 10 µM)	relative viability ([1]; first compound 31.62 µM)	relative viability ([1]; first compound 100 µM)	relative viability ([2]; first compound 0.04 µM)	relative viability ([2]; first compound 0.1265 µM)	relative viability ([2]; first compound 0.4 µM)	relative viability ([2]; first compound 1.265 µM)	relative viability ([2]; first compound 4 µM)	relative viability ([3]; first compound 1 µM)	relative viability ([3]; first compound 3.162 µM)	relative viability ([3]; first compound 10 µM)	relative viability ([3]; first compound 31.62 µM)	relative viability ([3]; first compound 100 µM)	relative viability ([4]; first compound 0.005 µM)	relative viability ([4]; first compound 0.01581 µM)	relative viability ([4]; first compound 0.05 µM)	relative viability ([4]; first compound 0.1581 µM)	relative viability ([4]; first compound 0.5 µM)
NCI-H322M	1.19	1.07	1.29	1.26	1.03	0.625	0.633	0.659	0.704	0.618	0.85	0.898	0.902	0.821	1.04	0.454	0.442	0.491	0.427	0.514
201T	1.05	1.07	1.16	0.794	0.913	0.307	0.361	0.326	0.361	0.327	0.956	0.792	0.744	0.689	0.731	0.376	0.361	0.335	0.351	0.343
SK-LU-1	0.891	1.4	1.41	0.574	1.39	1.02	1.04	1.08	1.08	0.984	1.08	1.16	1.26	0.769	0.832	0.433	0.406	0.38	0.368	0.355
NCI-H1755	0.894	0.907	0.866	0.862	0.971	0.418	0.498	0.565	0.569	0.455	0.935	0.991	0.905	0.802	0.969	0.472	0.423	0.462	0.512	0.42
NCI-H1666	0.635	0.472	0.465	0.404	0.28	0.884	0.845	0.813	0.885	0.827	0.69	0.599	0.534	0.521	0.448	0.689	0.606	0.653	0.631	0.657
PC-3 [JPC-3]	0.819	0.877	0.77	0.583	0.613	1.12	1.32	1.28	1.07	1.07	0.964	0.947	0.862	0.853	0.923	0.558	–	0.556	0.603	0.61
NCI-H1975	0.34	0.306	0.305	0.335	0.271	0.307	0.362	0.301	0.283	0.299	0.948	0.707	0.643	0.733	0.523	0.694	0.586	0.507	0.541	0.672
LC-2-ad	0.892	1.04	0.976	0.767	0.768	0.252	0.28	0.258	0.262	0.273	0.849	0.846	0.804	0.547	0.767	0.473	0.532	0.485	0.503	0.523
NCI-H1993	–	0.815	0.861	0.887	0.892	0.566	0.59	0.623	0.584	0.62	–	0.669	0.741	0.684	0.714	0.604	0.68	0.678	0.583	0.677
CAL-12T	0.962	1.09	1.02	0.666	0.809	1.11	1.47	1.09	1.1	1.13	0.877	0.702	0.819	0.718	0.702	0.586	0.508	0.41	0.525	0.522
H3255	0.584	0.76	0.711	0.416	0.421	0.533	0.616	0.585	0.624	0.517	1.02	0.969	0.919	0.672	0.962	0.332	0.294	0.316	0.334	0.329
NCI-H2228	0.919	1.03	0.926	0.86	0.722	0.325	0.346	0.351	0.34	0.321	1.04	0.606	0.583	0.544	0.555	0.926	0.664	0.615	0.614	0.882
NCI-H1355	1.17	1.04	0.954	0.789	1.03	1.06	1.16	1.13	1.03	1.04	0.753	0.666	0.599	0.605	0.599	0.415	0.443	0.426	0.414	0.409
LXF-289	1.01	1.01	1.02	0.813	0.962	0.907	0.974	0.984	0.993	0.92	0.985	0.967	0.959	0.869	0.961	0.597	0.539	0.603	0.583	0.657
NCI-H3122	1.03	0.99	1.05	0.904	1	–	0.222	0.213	0.194	0.2	1.07	1.06	1.03	0.879	1.08	0.171	0.198	0.205	0.206	0.184
NCI-H2023	0.724	0.86	0.856	0.408	0.669	0.225	0.287	0.217	0.213	0.198	0.674	0.511	0.63	0.46	0.476	0.393	0.447	0.363	0.34	0.412

Cell Line	relative viability ([1]; first compound 1 µM)	relative viability ([1]; first compound 3.162 µM)	relative viability ([1]; first compound 10 µM)	relative viability ([1]; first compound 31.62 µM)	relative viability ([1]; first compound 100 µM)	relative viability ([2]; first compound 0.04 µM)	relative viability ([2]; first compound 0.1265 µM)	relative viability ([2]; first compound 0.4 µM)	relative viability ([2]; first compound 1.265 µM)	relative viability ([2]; first compound 4 µM)	relative viability ([3]; first compound 1 µM)	relative viability ([3]; first compound 3.162 µM)	relative viability ([3]; first compound 10 µM)	relative viability ([3]; first compound 31.62 µM)	relative viability ([3]; first compound 100 µM)	relative viability ([4]; first compound 0.005 µM)	relative viability ([4]; first compound 0.01581 µM)	relative viability ([4]; first compound 0.05 µM)	relative viability ([4]; first compound 0.1581 µM)	relative viability ([4]; first compound 0.5 µM)
NCI-H838	0.786	0.628	0.599	0.626	0.62	0.229	0.267	0.272	0.257	0.262	0.96	0.888	0.853	0.735	0.782	0.246	0.229	0.233	0.226	0.23
COR-L 105	0.725	0.615	0.856	0.629	0.632	0.989	1.12	1.18	0.93	1.03	0.786	0.713	0.859	0.573	0.662	0.456	0.434	0.38	0.438	0.37
RERF-LC-KJ	0.798	0.855	1.07	1	0.721	0.467	0.46	0.464	0.463	0.449	0.885	0.769	0.745	0.727	0.631	1.09	1.16	1.03	1.14	1.11
NCI-H2405	0.869	0.935	0.925	0.857	0.953	1.01	1.12	1.14	1.11	1.19	–	0.869	0.867	0.804	0.776	0.505	0.524	0.542	0.517	0.537
UMC-11	0.818	0.803	0.759	0.574	1.05	0.839	0.881	0.969	0.808	0.728	1.16	1.01	1.1	0.913	1.49	0.316	0.318	0.313	0.302	0.311
PC-14	0.821	0.829	0.964	0.888	0.882	0.131	0.13	0.139	0.141	0.124	0.975	0.979	0.941	0.764	0.743	0.498	0.427	0.511	0.563	0.71
HCC-78	0.415	0.394	0.472	0.418	0.477	0.923	1.01	0.942	0.895	0.95	0.481	0.54	0.513	–	0.584	0.504	0.408	0.469	0.5	0.449
A-427	0.953	0.957	0.916	0.722	0.928	0.966	1.02	1.08	0.928	0.936	1.07	1.06	1.1	0.924	1.11	0.491	0.511	0.564	0.567	0.543
HCC-827	0.961	1.14	0.987	0.903	0.981	0.267	0.267	0.266	0.262	0.286	0.942	0.96	0.91	0.589	0.841	0.511	0.501	0.475	0.491	0.546
EPLC-272H	–	0.944	0.895	0.627	1.11	0.313	0.337	0.371	0.319	0.291	–	1.07	1.21	0.995	1.11	0.294	0.369	0.336	0.354	0.309
NCI-H520	0.64	0.771	0.567	0.386	0.739	0.65	0.848	0.788	0.686	0.785	1.07	1.07	0.946	0.623	1.12	0.242	0.19	0.205	0.194	0.187
BEN	0.47	0.884	0.914	0.728	1.04	0.62	0.895	0.782	0.678	0.592	0.991	1.11	1.01	0.929	1.29	0.474	0.433	0.459	0.518	0.515
NCI-H2087	0.733	0.768	0.941	0.489	1.02	0.772	0.798	0.64	0.611	0.685	0.765	1.03	0.966	0.776	0.778	0.251	0.202	0.294	0.265	0.255
NCI-H661	0.784	0.82	0.909	0.925	1.02	0.906	0.953	0.965	0.899	0.991	0.669	0.616	0.565	0.68	0.598	0.412	0.392	0.424	0.405	0.428
LCLC-103H	1.12	1.08	0.902	0.831	1.25	0.422	0.478	0.428	0.455	0.434	0.915	0.954	1.09	0.986	1.18	0.475	0.464	0.493	0.474	0.451
NCI-H441	0.245	0.821	0.442	0.448	0.503	0.24	0.243	0.267	0.245	0.275	0.52	0.528	0.613	0.478	0.662	0.239	0.225	0.222	0.204	0.25
